Values quoted from earlier work in publication PMC8330515 (Bioorganic & medicinal chemistry letters, 2020).
pIC50: −log10 of the molar value.

System: normal prostate epithelial cells
Details: read-out: 24 h IC50 in normal prostate epithelial cells

CCN(CC)C(=S)SCc1ccc(NC(=O)CC[C@H](N)C(=O)O)cc1 [GGTDTC]
pIC50: < 4.82
